Test results taken from ChEMBL document CHEMBL1268996, “Apoptotic action of ursolic acid isolated from Corni fructus in RC-58T/h/SA#4 primary human prostate cancer cells” (2010).
The source made the active and inactive calls. The calls are words filed in the database; no cut-off is given here.

Legend:
Homo sapiens [1] = species: Homo sapiens; assay: Antiproliferative activity against human RC-58T/h/SA#4 cells at >= 30 uM SRB assay; assay type: functional, cell-based; settings: TDE = time-dependent effect
Homo sapiens [2] = species: Homo sapiens; assay: Antiproliferative activity against human RC-58T/h/SA#4 cells after 24 to 72 hrs SRB assay; assay type: functional, cell-based
Homo sapiens [3] = species: Homo sapiens; assay: Antiproliferative activity against human RC-58T/h/SA#4 cells assessed as decrease in viable cells by trypan blue assay; assay type: functional, cell-based
Homo sapiens [4] = species: Homo sapiens; assay: Induction of apoptosis in human RC-58T/h/SA#4 cells assessed as increase in sub-G1 DNA content after 24 hrs by flow cytometry; assay type: functional, cell-based
[5] = Induction of apoptosis in human RC-58T/h/SA#4 cells assessed as increase in sub-G1 DNA content at 10 ug/ml after 24 hrs by flow cytometry; assay type: functional
[6] = Induction of apoptosis in human RC-58T/h/SA#4 cells assessed as increase in sub-G1 DNA content at 20 ug/ml after 24 hrs by flow cytometry; assay type: functional
[7] = Induction of apoptosis in human RC-58T/h/SA#4 cells assessed as increase in sub-G1 DNA content at 30 ug/ml after 24 hrs by flow cytometry; assay type: functional
[8] = Induction of apoptosis in human RC-58T/h/SA#4 cells assessed as increase in sub-G1 DNA content at 40 ug/ml after 24 hrs by flow cytometry; assay type: functional
Homo sapiens [9] = species: Homo sapiens; assay: Induction of apoptosis in human RC-58T/h/SA#4 cells assessed as chromatin condensation at 30 to 40 uM after 24 hrs by Hoechst 33258 staining; assay type: functional, cell-based
Homo sapiens [10] = species: Homo sapiens; assay: Induction of apoptosis in human RC-58T/h/SA#4 cells assessed as nuclear fragmentation at 30 to 40 uM after 24 hrs by Hoechst 33258 staining; assay type: functional, cell-based
Homo sapiens [11] = species: Homo sapiens; assay: Induction of apoptosis in human RC-58T/h/SA#4 cells assessed as DNA fragmentation ladder at 30 to 40 uM after 24 hrs by agarose gel electrophoresis; assay type: functional, cell-based
[12] = Induction of apoptosis in human RC-58T/h/SA#4 cells assessed as caspase 8 activation at 40 uM by fluorometric protease assay relative to control; assay type: functional
[13] = Induction of apoptosis in human RC-58T/h/SA#4 cells assessed as caspase 9 activation at 40 uM by fluorometric protease assay relative to control; assay type: functional
[14] = Induction of apoptosis in human RC-58T/h/SA#4 cells assessed as caspase 3 activation at 40 uM by fluorometric protease assay relative to control; assay type: functional
Homo sapiens [15] = species: Homo sapiens; assay: Induction of apoptosis in human RC-58T/h/SA#4 cells assessed as PARP cleavage by Western blot analysis; assay type: functional, cell-based
Homo sapiens [16] = species: Homo sapiens; assay: Induction of apoptosis in human RC-58T/h/SA#4 cells assessed as PARP cleavage by Western blot analysis in presence of 10 uM Z-VAD-fmk caspase inhibitor; assay type: functional, cell-based
Homo sapiens [17] = species: Homo sapiens; assay: Induction of apoptosis in human RC-58T/h/SA#4 cells assessed as increase in pro-apoptotic protein Bax at 30 to 40 uM by Western blot analysis; assay type: functional, cell-based
Homo sapiens [18] = species: Homo sapiens; assay: Induction of apoptosis in human RC-58T/h/SA#4 cells assessed as decrease in anti-apoptotic protein Bcl-2 at 30 to 40 uM by Western blot analysis; assay type: functional, cell-based
Homo sapiens [19] = species: Homo sapiens; assay: Induction of apoptosis in human RC-58T/h/SA#4 cells assessed as caspase 8-mediated Bid protein cleavage at 30 to 40 uM by Western blot analysis; assay type: functional, cell-based
Homo sapiens [20] = species: Homo sapiens; assay: Induction of apoptosis in human RC-58T/h/SA#4 cells assessed as AIF translocation into nucleus at 30 to 40 uM by Western blot analysis; assay type: functional, cell-based

C[C@H]1[C@H](C)CC[C@]2(C(=O)O)CC[C@]3(C)C(=CC[C@@H]4[C@@]5(C)CC[C@H](O)C(C)(C)[C@@H]5CC[C@]43C)[C@H]12 [URSOLIC ACID]
Activity (Homo sapiens [1]): tde | Activity (Homo sapiens [2]): Dose-dependent effect | Activity (Homo sapiens [3]): Dose-dependent effect | Activity (Homo sapiens [4]): Dose-dependent effect | Activity [5]: 5.41% | Activity [6]: 20.83% | Activity [7]: 48.1% | Activity [8]: 58.6% | Activity (Homo sapiens [9]): Active | Activity (Homo sapiens [10]): Active | Activity (Homo sapiens [11]): Active | fold change (FC) [12]: 1.8 | fold change (FC) [13]: 1.1 | fold change (FC) [14]: 1.8 | Activity (Homo sapiens [15]): Active | Activity (Homo sapiens [16]): inactive | Activity (Homo sapiens [17]): Active | Activity (Homo sapiens [18]): Active | Activity (Homo sapiens [19]): Active | Activity (Homo sapiens [20]): Active
